Experimental data as given in PubChem BioAssay AID1745844 (Carcinogenic Potency Database (CPDB), 2022).
“And” between values parts separate entries of the source, which are not always exact repeats. Equal values may be shown once. The source made the active and inactive calls. The rule behind the calls is not given here.

System: rodent lifetime carcinogenesis bioassay, tumor incidence TD50
Test: carcinogenic potency in animals, long-term in vivo studies, CPDB compilation (AID 1745844)

For `CC/C(=C(/CC)c1ccc(O)cc1)c1ccc(O)cc1`, the TD50 (mouse, strain (C57BL/6 x BALB/c)F1, females, in feed, site: cervix, lesion: squamous-cell carcinoma, dosed 148 weeks, study length 161 weeks) was 1.98 mg/kg/day, the carcinogen call (mouse, strain (C57BL/6 x BALB/c)F1, females, in feed, site: mammary gland, lesion: adenocarcinoma, type B, dosed 148 weeks, study length 161 weeks) was “positive” and the TD50 (mouse, strain (C57BL/6 x BALB/c)F1, females, in feed, site: pituitary gland, lesion: adenocarcinoma, dosed 148 weeks, study length 161 weeks) was 2.01 mg/kg/day. It also gave a TD50 (mouse, strain (C57BL/6 x BALB/c)F1, females, in feed, site: pituitary gland, lesion: adenoma, dosed 148 weeks, study length 161 weeks) of 0.0387 mg/kg/day, a TD50 (mouse, strain (C57BL/6 x BALB/c)F1, males, in feed, site: pituitary gland, lesion: adenoma, dosed 150 weeks, study length 169 weeks) of 0.0722 mg/kg/day and a TD50 (mouse, strain (C57BL/6 x BALB/c)F1, males, in feed, site: testis, lesion: interstitial-cell tumor, dosed 150 weeks, study length 169 weeks) of 0.0408 mg/kg/day. For the same compound, the TD50 (mouse, strain BALB/cStCrlfC3Hf/Nctr, females, in feed, site: cervix, lesion: adenoacanthoma, dosed 132 weeks, study length 133 weeks) was 1.28 mg/kg/day, the TD50 (mouse, strain BALB/cStCrlfC3Hf/Nctr, females, in feed, site: cervix, lesion: squamous-cell carcinoma, dosed 132 weeks, study length 133 weeks) was 0.311 mg/kg/day and the TD50 (mouse, strain BALB/cStCrlfC3Hf/Nctr, females, in feed, site: mammary gland, lesion: adenoacanthoma, dosed 132 weeks, study length 133 weeks) was 1.88 mg/kg/day. The TD50 (mouse, strain BALB/cStCrlfC3Hf/Nctr, females, in feed, site: mammary gland, lesion: adenocarcinoma, type B, dosed 132 weeks, study length 133 weeks) was 0.476 mg/kg/day, the TD50 (mouse, strain BALB/cStCrlfC3Hf/Nctr, females, in feed, site: ovary, lesion: granulosa-cell tumor, dosed 132 weeks, study length 133 weeks) was 0.166 mg/kg/day and the TD50 (mouse, strain BALB/cStCrlfC3Hf/Nctr, females, in feed, site: pituitary gland, lesion: adenocarcinoma, dosed 132 weeks, study length 133 weeks) was 5.1 mg/kg/day. The TD50 (mouse, strain BALB/cStCrlfC3Hf/Nctr, females, in feed, site: pituitary gland, lesion: adenoma, dosed 132 weeks, study length 133 weeks) was 0.2 mg/kg/day, the TD50 (mouse, strain BALB/cStCrlfC3Hf/Nctr, females, in feed, site: uterus, lesion: adenocarcinoma, dosed 132 weeks, study length 133 weeks) was 5.32 mg/kg/day and the TD50 (mouse, strain BALB/cStCrlfC3Hf/Nctr, females, in feed, site: vagina, lesion: squamous-cell carcinoma, dosed 132 weeks, study length 133 weeks) was 1.31 mg/kg/day. The TD50 (mouse, strain BALB/cStCrlfC3Hf/Nctr, males, in feed, site: pituitary gland, lesion: adenoma, dosed 121 weeks, study length 126 weeks) was 0.171 mg/kg/day, the TD50 (mouse, strain BALB/cStCrlfC3Hf/Nctr, males, in feed, site: testis, lesion: interstitial-cell tumor, dosed 121 weeks, study length 126 weeks) was 0.0215 mg/kg/day and the TD50 (mouse, strain C3H (MTV+), females, in feed, site: mammary gland, lesion: adenocarcinoma, dosed 104 weeks, study length 104 weeks) was 0.026 mg/kg/day. For the same compound, the TD50 (mouse, strain C3H (MTV+), females, in feed, site: mammary gland, lesion: carcinoma, dosed 85 weeks, study length 85 weeks) was 0.0292 mg/kg/day, the TD50 (mouse, strain C3H/AnCum, males, in feed, site: mammary gland, lesion: carcinoma, dosed 104 weeks, study length 104 weeks) was 0.0359 mg/kg/day and 0.0421 mg/kg/day and 0.0789 mg/kg/day and the TD50 (mouse, strain C3H/HeJ (MTV+), females, in feed, site: mammary gland, lesion: adenocarcinoma, dosed 52 weeks, study length 52 weeks) was 0.0825 mg/kg/day. The TD50 (mouse, strain C3H/HeJ (MTV+), females, in feed, site: mammary gland, lesion: adenocarcinoma, dosed 104 weeks, study length 104 weeks) was 14.2 mg/kg/day, the TD50 (mouse, strain C3H/HeJ (MTV+), females, in feed, site: ovary, lesion: tubular adenoma, dosed 78 weeks, study length 78 weeks) was 0.0222 mg/kg/day and the TD50 (mouse, strain C3H/HeN-MTV-/Nctr (MTV-), females, in feed, site: all sites, lesion: mesothelioma, dosed 112 weeks, study length 112 weeks) was 0.928 mg/kg/day. The TD50 (mouse, strain C3H/HeN-MTV-/Nctr (MTV-), females, in feed, site: all sites, lesion: mesothelioma, dosed 123 weeks, study length 123 weeks) was 0.487 mg/kg/day, the TD50 (mouse, strain C3H/HeN-MTV-/Nctr (MTV-), females, in feed, site: all sites, lesion: mesothelioma, dosed 125 weeks, study length 125 weeks) was 0.52 mg/kg/day and the TD50 (mouse, strain C3H/HeN-MTV-/Nctr (MTV-), females, in feed, site: cervix uteri, lesion: adenocarcinoma, dosed 112 weeks, study length 112 weeks) was 2.47 mg/kg/day. It also gave a TD50 (mouse, strain C3H/HeN-MTV-/Nctr (MTV-), females, in feed, site: cervix uteri, lesion: adenocarcinoma, dosed 123 weeks, study length 123 weeks) of 1.66 mg/kg/day, a TD50 (mouse, strain C3H/HeN-MTV-/Nctr (MTV-), females, in feed, site: cervix uteri, lesion: adenocarcinoma, dosed 125 weeks, study length 125 weeks) of 1.17 mg/kg/day and a TD50 (mouse, strain C3H/HeN-MTV-/Nctr (MTV-), females, in feed, site: mammary gland, lesion: adenocarcinoma, type A, dosed 107 weeks, study length 107 weeks) of 2.63 mg/kg/day. For the same compound, the TD50 (mouse, strain C3H/HeN-MTV-/Nctr (MTV-), females, in feed, site: mammary gland, lesion: adenocarcinoma, type A, dosed 123 weeks, study length 123 weeks) was 4.39 mg/kg/day, the TD50 (mouse, strain C3H/HeN-MTV-/Nctr (MTV-), females, in feed, site: mammary gland, lesion: adenocarcinoma, type A, dosed 125 weeks, study length 125 weeks) was 2.1 mg/kg/day and the TD50 (mouse, strain C3H/HeN-MTV-/Nctr (MTV-), females, in feed, site: mammary gland, lesion: adenocarcinoma, type B, dosed 107 weeks, study length 107 weeks) was 0.0302 mg/kg/day. For the same compound, the TD50 (mouse, strain C3H/HeN-MTV-/Nctr (MTV-), females, in feed, site: mammary gland, lesion: adenocarcinoma, type B, dosed 112 weeks, study length 112 weeks) was 0.0434 mg/kg/day, the TD50 (mouse, strain C3H/HeN-MTV-/Nctr (MTV-), females, in feed, site: mammary gland, lesion: adenocarcinoma, type B, dosed 123 weeks, study length 123 weeks) was 0.118 mg/kg/day and the TD50 (mouse, strain C3H/HeN-MTV-/Nctr (MTV-), females, in feed, site: mammary gland, lesion: adenocarcinoma, type B, dosed 125 weeks, study length 125 weeks) was 0.0956 mg/kg/day. For the same compound, the TD50 (mouse, strain C3H/HeN-MTV-/Nctr (MTV-), females, in feed, site: mammary gland, lesion: several types, types named in the paper, dosed 107 weeks, study length 107 weeks) was 0.0247 mg/kg/day, the TD50 (mouse, strain C3H/HeN-MTV-/Nctr (MTV-), females, in feed, site: mammary gland, lesion: several types, types named in the paper, dosed 112 weeks, study length 112 weeks) was 0.0427 mg/kg/day and the TD50 (mouse, strain C3H/HeN-MTV-/Nctr (MTV-), females, in feed, site: mammary gland, lesion: several types, types named in the paper, dosed 123 weeks, study length 123 weeks) was 0.115 mg/kg/day. The TD50 (mouse, strain C3H/HeN-MTV-/Nctr (MTV-), females, in feed, site: mammary gland, lesion: several types, types named in the paper, dosed 125 weeks, study length 125 weeks) was 0.0872 mg/kg/day, the TD50 (mouse, strain C3H/HeN-MTV-/Nctr (MTV-), females, in feed, site: uterus, lesion: endometrial adenocarcinoma, dosed 112 weeks, study length 112 weeks) was 2.05 mg/kg/day and the TD50 (mouse, strain C3H/HeN-MTV-/Nctr (MTV-), females, in feed, site: uterus, lesion: endometrial adenocarcinoma, dosed 123 weeks, study length 123 weeks) was 1.87 mg/kg/day. It also gave a TD50 (mouse, strain C3H/HeN-MTV-/Nctr (MTV-), females, in feed, site: uterus, lesion: endometrial adenocarcinoma, dosed 125 weeks, study length 125 weeks) of 1.71 mg/kg/day, a TD50 (mouse, strain C3HeB/FeJ, females, in feed, site: mammary gland, lesion: adenocarcinoma, dosed 78 weeks, study length 78 weeks) of 0.295 mg/kg/day and a TD50 (mouse, strain C3HeB/FeJ, females, in feed, site: ovary, lesion: tubular adenoma, dosed 78 weeks, study length 78 weeks) of 0.329 mg/kg/day. The TD50 (mouse, strain C3HeB/FeJ, females, in feed, site: ovary, lesion: tubular adenoma, dosed 104 weeks, study length 104 weeks) was 0.597 mg/kg/day, the TD50 (mouse, strain C57BL/6, females, in feed, site: pituitary gland, lesion: adenoma, dosed 118 weeks, study length 143 weeks) was 0.0259 mg/kg/day and the carcinogen call (mouse, strain C57BL/6, females, in feed, site: thyroid gland, lesion: follicular-cell tumor, dosed 118 weeks, study length 143 weeks) was “positive”. It also gave a TD50 (mouse, strain C57BL/6, males, in feed, site: pituitary gland, lesion: adenocarcinoma, dosed 125 weeks, study length 153 weeks) of 1.42 mg/kg/day, a TD50 (mouse, strain C57BL/6, males, in feed, site: pituitary gland, lesion: adenoma, dosed 125 weeks, study length 153 weeks) of 0.0176 mg/kg/day and a TD50 (mouse, strain C57BL/6, males, in feed, site: testis, lesion: interstitial-cell tumor, dosed 125 weeks, study length 153 weeks) of 0.257 mg/kg/day. For the same compound, the TD50 (mouse, strain C57BL/6, males, in feed, site: thyroid gland, lesion: follicular-cell tumor, dosed 125 weeks, study length 153 weeks) was 0.05 mg/kg/day, the TD50 (mouse, strain Monohybrid cross offspring of B6CF1 (C57BL/6 x BALB/c), females, in feed, site: cervix, lesion: squamous-cell carcinoma, dosed 144 weeks, study length 153 weeks) was 1.03 mg/kg/day and the TD50 (mouse, strain Monohybrid cross offspring of B6CF1 (C57BL/6 x BALB/c), females, in feed, site: ovary, lesion: granulosa-cell tumor, dosed 144 weeks, study length 153 weeks) was 1.74 mg/kg/day. It also gave a TD50 (mouse, strain Monohybrid cross offspring of B6CF1 (C57BL/6 x BALB/c), females, in feed, site: pituitary gland, lesion: adenocarcinoma, dosed 144 weeks, study length 153 weeks) of 17 mg/kg/day, a TD50 (mouse, strain Monohybrid cross offspring of B6CF1 (C57BL/6 x BALB/c), females, in feed, site: pituitary gland, lesion: adenoma, dosed 144 weeks, study length 153 weeks) of 0.0456 mg/kg/day and a TD50 (mouse, strain Monohybrid cross offspring of B6CF1 (C57BL/6 x BALB/c), females, in feed, site: thyroid gland, lesion: follicular-cell adenoma, dosed 144 weeks, study length 153 weeks) of 0.186 mg/kg/day. The TD50 (mouse, strain Monohybrid cross offspring of B6CF1 (C57BL/6 x BALB/c), females, in feed, site: uterus, lesion: mesothelioma, dosed 144 weeks, study length 153 weeks) was 1.72 mg/kg/day, the TD50 (mouse, strain Monohybrid cross offspring of B6CF1 (C57BL/6 x BALB/c), males, in feed, site: pituitary gland, lesion: adenocarcinoma, dosed 147 weeks, study length 158 weeks) was 4.36 mg/kg/day and the TD50 (mouse, strain Monohybrid cross offspring of B6CF1 (C57BL/6 x BALB/c), males, in feed, site: pituitary gland, lesion: adenoma, dosed 147 weeks, study length 158 weeks) was 0.0794 mg/kg/day. The TD50 (mouse, strain Monohybrid cross offspring of B6CF1 (C57BL/6 x BALB/c), males, in feed, site: testis, lesion: interstitial-cell tumor, dosed 147 weeks, study length 158 weeks) was 0.0661 mg/kg/day, the TD50 (rat, strain Charles River CD (Sprague-Dawley), females, in feed, site: liver, lesion: hepatoma, dosed 91 weeks, study length 104 weeks) was 0.13 mg/kg/day (inactive) and the TD50 (rat, strain Charles River CD (Sprague-Dawley), males, in feed, site: adrenal gland, lesion: cortical adenoma, dosed 66 weeks, study length 66 weeks) was 0.39 mg/kg/day. The TD50 (rat, strain Charles River CD (Sprague-Dawley), males, in feed, site: liver, lesion: carcinoma, dosed 66 weeks, study length 66 weeks) was 1.21 mg/kg/day, the TD50 (rat, strain Charles River CD (Sprague-Dawley), males, in feed, site: liver, lesion: nodular hyperplasia, dosed 66 weeks, study length 66 weeks) was 0.39 mg/kg/day and the carcinogen call (rat, strain Charles River CD (Sprague-Dawley), males, in feed, site: liver, lesion: one or several types, types not named, dosed 91 weeks, study length 104 weeks) was “negative (inactive)”. The TD50 (rat, strain Charles River CD (Sprague-Dawley), males, in feed, site: pituitary gland, lesion: chromophobe adenoma, dosed 66 weeks, study length 66 weeks) was 0.114 mg/kg/day, the TD50 (rat, strain Sprague-Dawley, females, by gavage, site: liver, lesion: hepatocellular adenoma, dosed 52 weeks, study length 52 weeks) was 16.3 mg/kg/day and the TD50 (rat, strain Sprague-Dawley, females, by gavage, site: liver, lesion: hepatocellular carcinoma, dosed 52 weeks, study length 52 weeks) was 4.8 mg/kg/day. It also gave a TD50 (rat, strain Sprague-Dawley, females, by gavage, site: pituitary gland, lesion: adenoma, dosed 52 weeks, study length 52 weeks) of 7.68 mg/kg/day.
